From paper PMC9120901 (The Journal of General Physiology, 2022)
Values belong to the compound of their own block, whether it stands above or below them.

How the values were obtained:
Format in all cases: cell-based
ASIC3 [1] = target: T1, ASIC3 (Rattus norvegicus, UniProt O35240); assay: whole-cell patch clamp
T1 sequence (O35240 1-533): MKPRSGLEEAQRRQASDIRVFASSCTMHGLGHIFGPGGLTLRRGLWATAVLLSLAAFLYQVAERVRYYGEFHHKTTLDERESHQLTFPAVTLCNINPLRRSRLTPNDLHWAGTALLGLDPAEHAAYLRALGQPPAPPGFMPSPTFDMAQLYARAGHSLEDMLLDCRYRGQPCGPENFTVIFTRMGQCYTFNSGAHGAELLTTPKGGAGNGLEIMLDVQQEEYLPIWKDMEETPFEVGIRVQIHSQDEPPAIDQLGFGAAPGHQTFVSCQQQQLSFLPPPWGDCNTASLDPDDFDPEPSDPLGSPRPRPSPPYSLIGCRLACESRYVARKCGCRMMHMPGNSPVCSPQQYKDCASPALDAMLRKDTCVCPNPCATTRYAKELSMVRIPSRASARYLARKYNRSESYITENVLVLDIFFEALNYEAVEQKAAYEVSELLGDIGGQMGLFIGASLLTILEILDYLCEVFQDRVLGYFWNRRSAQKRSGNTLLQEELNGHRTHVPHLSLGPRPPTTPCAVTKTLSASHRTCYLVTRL

ASIC3 [2] = target: T1, ASIC3; assay: whole-cell patch clamp, shift of activation pH0.[…]
ASIC3 [3] = target: T1, ASIC3; assay: whole-cell patch clamp, concentration dependence of shift of activation pH0.[…]

whole-cell patch clamp; pH0.5 shift at 10 μM and concentration dependence at pH (ASIC3 [1]): 0.27 ΔpH0.5 at 10 µM
Compound: CC/C=C\C/C=C\C/C=C\C/C=C\C/C=C\CCCCCC(=O)O [DPA, docosapentaenoic acid]

Compound: CCCCC/C=C\C/C=C\C/C=C\C/C=C\CCCC(=O)NCC(=O)O [AG, arachidonyl glycine]
EC50 (ASIC3 [2]): 5.4 ± 1.12 µM

EC50 (ASIC3 [3]): 11 ± 2 µM
Compound: CCCCC/C=C\C/C=C\C/C=C\C/C=C\CCCC(=O)O [AA, arachidonic acid]
